Measurements from ChEMBL document CHEMBL1275397, “Effects on molecular conformation and anticoagulant activities of 1,6-anhydrosugars at the reducing terminal of antithrombin-binding octasaccharides isolated from low-molecular-weight heparin enoxaparin” (J Med Chem, 2010).
pKd: −log10 of the molar value.

Assays:
[1] = Binding affinity to human antithrombin in HEPES buffer containing 0.25 M sodium chloride assessed as increase of serpin intrinsic fluorescence by fluorospectrophotometric analysis
[2] = molecular target: Coagulation factor X (Homo sapiens) (UniProt P00742); assay: Inhibition of factor 10a in aqueous buffer solutions assessed as specific activity of enzyme
Sequence of Coagulation factor X (Homo sapiens) (P00742 41-179 limits assumed): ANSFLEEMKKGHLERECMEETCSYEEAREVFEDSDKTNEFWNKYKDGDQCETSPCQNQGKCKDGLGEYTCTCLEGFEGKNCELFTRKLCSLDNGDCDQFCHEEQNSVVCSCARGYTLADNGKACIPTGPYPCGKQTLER
Sequence of Coagulation factor X (Homo sapiens) (P00742 235-488 limits assumed): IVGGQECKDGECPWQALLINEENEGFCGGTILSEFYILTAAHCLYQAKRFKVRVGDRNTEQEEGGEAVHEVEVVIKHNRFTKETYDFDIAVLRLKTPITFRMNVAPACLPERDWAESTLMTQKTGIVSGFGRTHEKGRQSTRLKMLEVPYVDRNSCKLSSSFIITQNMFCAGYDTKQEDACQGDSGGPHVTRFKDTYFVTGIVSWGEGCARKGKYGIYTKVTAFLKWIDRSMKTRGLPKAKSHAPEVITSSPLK

[3] = Binding affinity to human antithrombin in HEPES buffer containing 0.1 M sodium chloride assessed as increase of serpin intrinsic fluorescence by fluorospectrophotometric analysis
[4] = molecular target: Coagulation factor X (Homo sapiens) (UniProt P00742); assay: Inhibition of factor 10a in human plasma assessed as specific activity of enzyme; assay type: cell-free
[5] = Binding affinity to human antithrombin in HEPES buffer containing 0.50 M sodium chloride assessed as increase of serpin intrinsic fluorescence by fluorospectrophotometric analysis

pKd [1] | Activity [2] [U/mg] | pKd [3] | Activity [4] [U/mg] | pKd [5] | Structure (SMILES)
< 5.00 | 51.4 | 6.05 | 49.6 | – | CC(=O)N[C@H]1[C@@H](O[C@H]2[C@H](O)[C@@H](O)[C@H](O[C@H]3[C@H](OS(=O)(=O)O)[C@@H](NS(=O)(=O)O)[C@@H](O[C@H]4[C@H](O)[C@@H](OS(=O)(=O)O)[C@H](O[C@H]5[C@H](O)[C@H](NS(=O)(=O)O)[C@H]6OC[C@H]5O6)O[C@H]4C(=O)O)O[C@@H]3COS(=O)(=O)O)O[C@@H]2C(=O)O)O[C@H](COS(=O)(=O)O)[C@@H](O[C@@H]2O[C@@H](C(=O)O)[C@@H](O[C@H]3O[C@H](COS(=O)(=O)O)[C@@H](O[C@@H]4OC(C(=O)O)=C[C@H](O)[C@H]4OS(=O)(=O)O)[C@H](O)[C@H]3NS(=O)(=O)O)[C@H](O)[C@H]2O)[C@@H]1O
– | – | 6.92 | – | 5.56 | CC(=O)N[C@H]1[C@@H](O[C@H]2[C@H](O)[C@@H](O)[C@H](O[C@H]3[C@H](OS(=O)(=O)O)[C@@H](NS(=O)(=O)O)[C@@H](O[C@H]4[C@H](O)[C@@H](OS(=O)(=O)O)[C@H](O[C@H]5[C@H](O)[C@@H](NS(=O)(=O)O)[C@@H](O)O[C@@H]5COS(=O)(=O)O)O[C@H]4C(=O)O)O[C@@H]3COS(=O)(=O)O)O[C@@H]2C(=O)O)O[C@H](COS(=O)(=O)O)[C@@H](O[C@@H]2O[C@@H](C(=O)O)[C@@H](O[C@H]3O[C@H](COS(=O)(=O)O)[C@@H](O[C@@H]4OC(C(=O)O)=C[C@H](O)[C@H]4OS(=O)(=O)O)[C@H](O)[C@H]3NS(=O)(=O)O)[C@H](O)[C@H]2O)[C@@H]1O
< 5.00 | 39.6 | 5.91 | 39.3 | – | CC(=O)N[C@H]1[C@@H](O[C@H]2[C@H](O)[C@@H](O)[C@H](O[C@H]3[C@H](OS(=O)(=O)O)[C@@H](NS(=O)(=O)O)[C@@H](O[C@H]4[C@H](O)[C@@H](OS(=O)(=O)O)[C@H](O[C@H]5[C@H](O)[C@@H](NS(=O)(=O)O)[C@H]6OC[C@H]5O6)O[C@H]4C(=O)O)O[C@@H]3COS(=O)(=O)O)O[C@@H]2C(=O)O)O[C@H](COS(=O)(=O)O)[C@@H](O[C@@H]2O[C@@H](C(=O)O)[C@@H](O[C@H]3O[C@H](COS(=O)(=O)O)[C@@H](O[C@@H]4OC(C(=O)O)=C[C@H](O)[C@H]4OS(=O)(=O)O)[C@H](O)[C@H]3NS(=O)(=O)O)[C@H](O)[C@H]2O)[C@@H]1O
